The text below walks through data of US20170283408A1, “BENZO-HETEROCYCLIC COMPOUNDS AND THEIR APPLICATIONS” (priority 2014, published 2017).

SMILES strings stand for the structures.

Data set [1] concerns PD-L1. Description: PD-L1 level in LPS-primed monocyte model (flow cytometry). Format: cell-based, human. The following applies: for expression level of PD-L1 in LPS-primed monocytes, of that of the control: compound at 10 μM, LPS 100 ng/mL, relative to control. An excerpt: (§1) White blood cells of test subjects including healthy volunteers recruited from the Taiwan Blood Service Foundation (Taipei, Taiwan) and septic patients were obtained with written informed consents. Human monocytes were then isolated in accordance with procedures described previously (Chen I H et al., Cancer Immunol Immunother (2010) 59, 323-334). Briefly, peripheral blood mononuclear cells (PBMCs) were isolated using Ficoll-Paque Plus (GE Healthcare) gradient centrifugation. The monocytes were further purified by conducting CD14 selection using CD14 MACS microbeads (Miltenyi Biotec). The purity of monocytes confirmed using flow cytometry analysis was approximately 90%. Monocytes were incubated with endotoxin LPS (100 ng/ml) for 72 hours. At the indicated time point, the cells were harvested and the PD-L1 and HLA-DR molecules were analyzed using flow cytometry. Murine B16F10 cell lines maintained in Dulbecco's modified Eagle's medium (DMEM), 10% heat-inactivated fetal calf serum, 2 mM L-glutamine, penicillin (100 U/ml), and streptomycin (100 μg/ml) at 37 C in a 5% CO2 humidified atmosphere.
(§2) To analyze the surface phenotype of the monocytes, the cells were incubated for 30 minutes on ice in the dark with the following mAbs diluted in phosphate-buffered saline (PBS) containing 1% BSA: PD-L1-FITC, HLA-DR-PE, CD14-PerCP (BD Biosciences). Monocytes were gated based on their FSC/SSC properties. Fluorescence was detected using FACS Calibur, and data analysis was performed using FCS Express version 3 (De Novo Software).
In this example, an LPS-primed monocyte model was established and then used to evaluate the function of the compound of example 1. Specifically, monocytes isolated from healthy subjects according to procedures described in the “Materials and methods” section were incubated with LPS (100 ng/mL) for 72 hours, then respective levels of PD-L1 and HLA-DR were determined. Results are illustrated in FIG. 2.
The effects of the compounds of example 1 were tested in the LPS-primed monocyte model of example 3.1, in which various concentrations of ML-C19-A, ML-C19-B, ML-A1-B, and ML-A1-C were incubated with LPS-primed monocytes of example 3.1; results are illustrated in FIGS. 3 and 4.

A further data set deals with HLA-DR. The data set is described as follows: HLA-DR level in LPS-primed monocyte model (flow cytometry). The data set is classed as cell-based, human. As to conditions: LPS-primed monocytes; FIG. 3.
Excerpt: as §1, §2
In this example, an LPS-primed monocyte model was established and then used to evaluate the function of the compound of example 1. Specifically, monocytes isolated from healthy subjects according to procedures described in the “Materials and methods” section were incubated with LPS (100 ng/mL) for 72 hours, then respective levels of PD-L1 and HLA-DR were determined. Results are illustrated in FIG. 2. […]
A general note: Flow cytometry measures light scatter and fluorescence of single cells or particles in a stream.

Data set [2] relates to PD-L1. The data set is described as follows: PD-L1 expression on IFN-γ stimulated B16F10 cells (flow cytometry). Format: cell-based, murine. As to conditions: various concentrations, 1 day; FIG. 5. The protocol:
as §1, with “IFN-γ stimulated-monocytes were incubated in the presence of either a DMSO vehicle control, ML-A1-B or ML-A1-C for 1 day. Treated cells were harvested and the PD-L1 molecules were analyzed using flow cytometry. Surface molecule expression is presented as the MFI relative to each day that the cells were treated with the DMSO vehicle control medium. Values are presented as the mean±SEM from 3 independent experiments. White” for “White”, “Murine B16F10 cell lines maintained in Dulbecco's modified Eagle's medium (DMEM), 10% heat-inactivated fetal calf serum, 2 mM L-glutamine, penicillin (100 U/ml), and streptomycin (100 μg/ml) at 37 C in a 5% CO2 humidified atmosphere.” left out

In data set [3] the test system is B16F10 lung metastases. Description: B16F10 lung metastasis model in C57BL/6 mice. As to conditions: 2 mg/kg ip daily, day 14, n=11/group. Format: in vivo. The protocol: C57BL/6 (n=11/group) mice were injected i.v. with 2×10^5 of the B16F10 tumor cells. Two mg/kg of ML-A1-B, ML-A1-C, or with DMSO vehicle control were used. The animals were killed on day 14 and tumor nodules in the lungs were counted. Data are presented as the number of each individual mouse and the mean of each group. Representative photographs of the lung of each group are also shown (left).
(§3) C57BL/6 mice (6 to 8 weeks old) and NOD/SCID mice (6 to 8 weeks old) were purchased from the National Laboratory Animal Center (Taipei, Taiwan). All animal experiments were performed under specific pathogen-free conditions and in accordance with guidelines approved by the Animal Care and Usage Committee of Mackay memorial hospital (Taipei, Taiwan).
To generate lung metastases, mice were injected intravenously with 2×10^5 B16F10 cells, a dose consistently yielding lung metastases in 100% of animals. 2 mg/kg compounds and 5% DMSO vehicle control were given ip daily to test the effect of compounds on tumor metastatsis. The amount of tumor seeding was counted as total numbers of black nodules presented in the lungs under microscopy.
To examine the therapeutic effect of ML-A1-B and ML-A1-C against pre-established B16F10 lung metastases, mice were iv injected with 2×10^5 B16F10 tumor cells and treated with, per mouse, 2 mg/kg of ML-A1-B, ML-A1-C, or with DMSO vehicle control.

For data set [4], the system named is B16F10 lung metastases. Description: B16F10 lung metastasis model in NOD/SCID mice. The following applies: 2 mg/kg, day 14, n=5/group. Format: in vivo. The protocol:
NOD/SCID (n=5/group) mice were injected i.v. with 2×10^5 of the B16F10 tumor cells. Two mg/kg of ML-A1-B, ML-A1-C, or with DMSO vehicle control were used. The animals were killed on day 14 and tumor nodules in the lungs were counted. Data are presented as the number of each individual mouse and the mean of each group. Representative photographs of the lung of each group are also shown (left).
as §3
To generate lung metastases, mice were injected intravenously with 2×10^5 B16F10 cells, a dose consistently yielding lung metastases in 100% of animals. 2 mg/kg compounds and 5% DMSO vehicle control were given ip daily to test the effect of compounds on tumor metastatsis. The amount of tumor seeding was counted as total numbers of black nodules presented in the lungs under microscopy. […]

Data set [5] can be described thus: In vivo toxic study (body weight). As to conditions: 20 mg/kg ip daily; C57BL/6. The protocol: C57BL/6 mice were ip injected daily with 20 mg/kg of ML-A1-B, or ML-A1-C, or 5% DMSO vehicle control, and their body weight were measured on the indicated days.
To investigate toxicity of ML-A1-B and ML-A1-C, mice were injected ip daily with 20 mg/kg of ML-A1-B or ML-A1-C or 5% DMSO vehicle control.

Data set [6] concerns murine B16F10 melanoma cells. Description: MTS cytotoxicity assay, B16F10. The data set is classed as cell-based. As to conditions: Mus musculus, B16-F10, B16F10; FIG. 6; read-out: IC50 (MTS assay), B16F10 melanoma cell line. The protocol: (§4) The B16F10 and human PBMCs were incubated in the presence of various concentrations of ML-A1-B and ML-A1-C compounds for 1 day. The cell cytotoxicity was monitored through MTS assay. Optical density of DMSO control groups was taken as 100% of cell viability. Values are presented as the mean±SEM from 3 independent experiments.
(§5) 5×10^3 of B16F10 cells were seeded into 96-well plates and treated with the following: DMSO control, various concentrations of naphthalimide derived compounds for 2 day. For the MTS assay (Promega), 40 ul of the MTS reagent was added into each well. Cells were incubated at 37° C. for 4 hr. The absorbance was detected at OD490 nm.
(§6) The cytotoxicity of various concentrations of ML-A1-B and ML-A1-C against murine B16F10 melanoma cells and human PBMCs were examined by MTS assay. […] Therapeutic index by MTS assay is about 5.62.
For orientation: Tetrazolium dyes change colour on reduction, which living cells bring about.

A further data set concerns human PBMCs. The data set is described as follows: MTS cytotoxicity assay, human PBMCs. The data set is classed as cell-based. The protocol:
as §4, §5, §6

In data set [7] the test system is B16F10 lung metastases. The data set is described as follows: Compounds and anti-PD-1 antibody combination therapy in B16F10 lung metastasis model (survival). The data set is classed as in vivo, C57BL/6 mice. As to conditions: compound 2 mg/kg daily combined with anti-PD-1 (J43) 5 mg/kg every 3-4 days; C57BL/6. The protocol:
C57BL/6 mice were injected iv with 2×10^5 B16F10 cells on Day0. On Day1, mice were injected ip with either control hamster Ig (CTRL IgG) or hamster anti-mouse-PD-1 (J43) at 5 mg/kg every 3-4 days. For combination therapies, mice were daily injected with 2 mg/kg of ML-C19-A or ML-A1-C combined with anti-mouse PD-1 (5 mg/kg) every 3-4 days. Long-term of survival of treated mice in each of the experimental groups were observed.
To examine whether combination of ML-C19-A or ML-A1-C with anti-PD-1 antibody would prolong mice survival in B16F10 lung metastasis model, mice were injected ip with compounds and anti-PD-1 antibody.

As for `CN(C)CCN1C(=O)c2cccc3c(-c4nc5ccccc5o4)ccc(c23)C1=O` [ML-A1-B, 6-(Benzo[d]oxazol-2-yl)-2-(2-(dimethylamino)ethyl)-1H-benzo[de]isoquinoline-1,3(2H)-dione], in the data set with PD-L1 [1], the “expression level of PD-L1 in LPS-primed monocytes, of that of the control” value (“expression level of PD-L1” below) was roughly 9.4%. Also, the “levels of HLA-DR expression” value in the data set with HLA-DR is given as “capable of altering the levels of HLA-DR expression”. For the same compound, the “PD-L1 on IFN-γ stimulated murine B16F10 melanoma cell line” value in the data set with PD-L1 [2] is reported as “significantly suppresses PD-L1”. Moreover, in the data set with B16F10 lung metastases [3], the “number of lung metastases (lung nodules), mean” value is recorded as 41 and the “number of lung metastases (lung nodules), range” value is recorded as 2-90. In addition, the “lung metastasis in immune deficient NOD/SCID mice” value with B16F10 lung metastases [4] was “failed to inhibit lung metastasis”. In [5], the “body weight of the mice” value is “do not significantly reduce the body weight” and the “visible sign of toxicity” value is “no visible sign of toxicity”.
Usually IC50 stands for the concentration at which inhibition is half-maximal. As for `CN(C)CCN1C(=O)c2cccc3c(-c4nc5ccccc5s4)ccc(c23)C1=O` [ML-A1-C, 6-(Benzo[d]thiazol-2-yl)-2-(2-(dimethylamino)ethyl)-1H-benzo[de]isoquinoline-1,3(2H)-dione], the “expression level of PD-L1” value in the data set on PD-L1 [1] is listed as roughly 50.8%. Also, in the data set on HLA-DR, the “levels of HLA-DR expression” value is reported as “capable of altering the levels of HLA-DR expression”. Also, the “PD-L1 on IFN-γ stimulated murine B16F10 melanoma cell line” value in the data set with PD-L1 [2] is reported as “significantly suppresses PD-L1”. Moreover, the IC50 in data set [6] came to 7.8 ± 0.05 µM. The compound further returned an IC50 with human PBMCs (Homo sapiens, PBMC, human PBMCs, FIG. 6) of 48.3 ± 0.14 µM. The “Therapeutic index by MTS assay” value in the data set with human PBMCs (ratio of PBMC IC50 to B16F10 IC50) was “about 5.62”. Besides, in the data set on B16F10 lung metastases [3], the “number of lung metastases (lung nodules), mean” value was found to be 30 and the “number of lung metastases (lung nodules), range” value is 3-59. In addition, the “lung metastasis in immune deficient NOD/SCID mice” value in the data set with B16F10 lung metastases [4] is recorded as “failed to inhibit lung metastasis”. In addition, in data set [5], the “body weight of the mice” value is recorded as “do not significantly reduce the body weight” and the “visible sign of toxicity” value is “no visible sign of toxicity”. Further, in the data set with B16F10 lung metastases [7], the overall survival result is “an increase in overall survival”.
In the case of `NS(=O)(=O)c1ccc(N2C(=O)c3cccc4cccc(c34)C2=O)cc1` [ML-C19-A], the “expression level of PD-L1” value with PD-L1 [1] was “about 37.5%”. Besides, the overall survival result with B16F10 lung metastases [7] is on record as “an increase in overall survival”.
Regarding `NS(=O)(=O)c1ccc(N2C(=O)c3cccc4c(Br)ccc(c34)C2=O)cc1` [ML-C19-B, 4-(6-bromo-1,3-dioxo-1H-benzo[de]isoquinolin-2(3H)-yl)benzene-sulfonamide], the “reduction in PD-L1 level as compared with that of the control” value in the data set on PD-L1 [1] (LPS-primed monocytes, FIG. 3) is listed as 20%. The “levels of HLA-DR expression” value with HLA-DR is “capable of altering the levels of HLA-DR expression”.
